Data reported in ChEMBL document CHEMBL5143680, “Cytotoxic Bromine- and Iodine-Containing Cytochalasins Produced by the Mangrove Endophytic Fungus Phomopsis sp. QYM-13 Using the OSMAC Approach” (J Nat Prod, 2022).

Experiments:
HepG2 = experiment: Cytotoxicity against human HepG2 cells measured after 72 hrs by MTT assay; format: functional, cell-based; settings: HepG2, 72 h
[1] = Cytotoxicity against African green monkey Vero cells measured after 72 hrs by MTT assay; format: toxicity, cell-based; settings: African green monkey (Chlorocebus sabaeus)
MDA-MB-435 = experiment: Cytotoxicity against human MDA-MB-435 cells measured after 72 hrs by MTT assay; format: functional, cell-based; settings: MDA-MB-435, 72 h
A549 = experiment: Cytotoxicity against human A549 cells measured after 72 hrs by MTT assay; format: functional, cell-based; settings: A549, 72 h
SNB-19 = experiment: Cytotoxicity against human SNB-19 cells measured after 72 hrs by MTT assay; format: functional, cell-based; settings: SNB-19, 72 h
MDA-MB-231 = experiment: Cytotoxicity against human MDA-MB-231 cells measured after 72 hrs by MTT assay; format: functional, cell-based; settings: MDA-MB-231, 72 h

Row | Compound | IC50 (HepG2) [µM] | IC50 at 72 h [1] [µM] | IC50 (MDA-MB-435) [µM] | IC50 (A549) [µM] | IC50 (SNB-19) [µM] | IC50 (MDA-MB-231) [µM]
1 | C=C1[C@@H](C)[C@H]2[C@H](Cc3ccccc3)NC(=O)[C@]23[C@H](OC(C)=O)[C@@H]2O[C@H]2[C@](C)(O)C[C@@H](C)C/C=C/[C@H]3[C@@H]1O | > 50 | > 50 | 42 | > 50 | > 50 | > 50
2 | CC(=O)O[C@@H]1/C=C/[C@](C)(O)C[C@@H](C)C/C=C/[C@H]2C=C(C)[C@@H](C)[C@H]3[C@H](Cc4ccccc4)NC(=O)[C@]321 | > 50 | > 50 | 34 | > 50 | > 50 | > 50
3 | C=C1/C=C/[C@@H](OC(C)=O)[C@@]23C(=O)N[C@@H](Cc4ccccc4)[C@@H]2[C@H](C)C(=C)[C@@H](O)[C@@H]3/C=C/C[C@H](C)C1 | > 50 | 14 | 11 | > 50 | 16 | 35
4 | CC1=C[C@@H]2/C=C/C[C@H](C)C[C@H](C)[C@@H]3O[C@H]3C(=O)[C@]23C(=O)N[C@@H](Cc2ccccc2)[C@@H]3[C@@H]1C | > 50 | > 50 | 44 | > 50 | > 50 | > 50
5 | C=C1[C@@H](C)[C@H]2[C@H](Cc3ccccc3)NC(=O)[C@]23[C@H](OC(C)=O)/C=C/C(C)=C\[C@@H](C)C/C=C/[C@H]3[C@@H]1O | > 50 | 25 | 12 | > 50 | 42 | 45
6 | CC1=C[C@@H]2/C=C/C[C@H](C)C[C@@](C)(O)/C=C/[C@@H](O)[C@]23C(=O)N[C@@H](Cc2ccccc2)[C@@H]3[C@@H]1C | > 50 | 44 | 38 | 38 | > 50 | > 50
7 | C=C1[C@@H](C)[C@H]2[C@H](Cc3ccccc3)NC(=O)[C@@]23[C@@H]([C@@H]2[C@H](/C=C(/C)C[C@@H](C)C[C@H]2Br)[C@H]3OC(C)=O)[C@@H]1O | > 50 | 18 | 7.4 | > 50 | > 50 | 44
8 | C=C1[C@@H](C)[C@H]2[C@H](Cc3ccccc3)NC(=O)[C@]23[C@H](O)/C=C/[C@](C)(O)C[C@@H](C)C/C=C/[C@H]3[C@@H]1O | > 50 | > 50 | 4.9 | > 50 | 6.8 | 31
9 | C=C1[C@@H](C)[C@H]2[C@H](Cc3ccccc3)NC(=O)[C@@]23[C@H]2[C@@H]4[C@H](C(C)=C[C@@H](C)C[C@H]4O[C@H]12)[C@H]3OC(C)=O | > 50 | 34 | 36 | > 50 | > 50 | > 50
10 | CC1=C[C@@H]2/C=C/C[C@H](C)C[C@@](C)(O)[C@@H]3O[C@H]3C(=O)[C@]23C(=O)N[C@@H](Cc2ccccc2)[C@@H]3[C@@H]1C | > 50 | 29 | 32 | 28 | > 50 | 11
11 | CC(=O)O[C@@H]1/C=C/[C@](C)(O)C[C@@H](C)C/C=C/[C@H]2C=C(C(=O)O)[C@@H](C)[C@H]3[C@H](Cc4ccccc4)NC(=O)[C@]321 | > 50 | > 50 | > 50 | > 50 | > 50 | > 50
12 | C=C1[C@@H](C)[C@H]2[C@H](Cc3ccccc3)NC(=O)[C@@]23[C@H]2[C@@H]4[C@H](C(C)=C[C@@H](C)C[C@H]4O[C@H]12)[C@@H](I)[C@H]3O | > 50 | 39 | > 50 | > 50 | > 50 | > 50
13 | CC(=O)O[C@@H]1/C=C/[C@](C)(O)C[C@@H](C)C/C=C/[C@H]2C=C(CO)[C@@H](C)[C@H]3[C@H](Cc4ccccc4)NC(=O)[C@]321 | > 50 | 22 | 8.2 | 38 | 6.9 | 42
14 | C=C1[C@@H](C)[C@H]2[C@H](Cc3ccccc3)NC(=O)[C@]23[C@H](OC(C)=O)/C=C/[C@](C)(O)C[C@@H](C)C/C=C/[C@H]3[C@@H]1O | > 50 | 40 | 0.2 | > 50 | 26 | 42
15 | C[C@H]1C/C=C/[C@H]2C=C(CO)[C@@H](C)[C@H]3[C@H](Cc4ccccc4)NC(=O)[C@]32[C@H](O)/C=C/[C@](C)(O)C1 | > 50 | > 50 | 25 | > 50 | > 50 | > 50
16 | C=C1[C@@H](C)[C@H]2[C@H](Cc3ccccc3)NC(=O)[C@@]23[C@H]2[C@@H]4[C@H](C(C)=C[C@@H](C)C[C@H]4O[C@H]12)[C@H]3O | > 50 | > 50 | > 50 | > 50 | > 50 | > 50
17 | C=C1[C@@H](C)[C@H]2[C@H](Cc3ccccc3)NC(=O)[C@@]23[C@@H]([C@@H]2[C@H](/C=C(/C)C[C@@H](C)C[C@H]2I)[C@H]3OC(C)=O)[C@@H]1O | 47 | 29 | 47 | 33 | > 50 | 43
18 | C=C1[C@@H](C)[C@H]2[C@H](Cc3ccccc3)NC(=O)[C@@]23[C@@H]([C@@H]2[C@H](/C=C(/C)C[C@@H](C)C[C@H]2O)[C@H]3OC(C)=O)[C@@H]1O | > 50 | > 50 | 45 | > 50 | > 50 | > 50
